A short description of data set [1]: Butanol/water (buffer pH 7) partition coefficient. To be noted: for Verteilungskoeffizient: Butanol/Wasser (Puffer pH 7), n = 4, Mittelwert ± Standardabweichung. It is filed as physicochemical. The source says:
Während Osmolalität, Viskosität und Jodgehalt den strukturisomeren Verbindungen lopamidol und lomeprol sehr ähnlich sind, zeigt sich eine überraschend erhöhte Hydrophilie der erfindungsgemäßen Verbindungen (Tab. 1). Tab.1:
Die Hydrophilie wird nicht wie bei der mit lohexol bezeichneten Verbindung durch die Einführung einer zusätzlichen Hydroxyalkylfunktion erreicht (die den Jodgehalt vermindert und Viskosität und Osmolalität erhöht), sondern ist die überraschende Folge einer neuen sterischen Anordnung der Substituenten an dem jodierten Aromaten.

Data set [2] can be described thus: Lethal dose after intravenous injection in rats. The class given is in vivo, Ratten. To be noted: rat, in vivo, iv; all three doses pooled, i.v., Ratten; read-out: gestorbene Tiere, alle Dosierungen (%). An excerpt:
(§1) Die Hydrophilie wird als eine wichtige Voraussetzung für eine Verminderung der bei intravenöser Injektion beobachteten nicht osmolalitätsbedingten Nebenwirkungen angesehen (Dawson P., Clauß W.: Contrast Media in Practice, Springer Verlag Berlin Heidelberg 1993, Seite 11-12). Dazu gehören vor allem Übelkeit und Erbrechen, sowie allergieartige Reaktionen bis hin zum schweren anaphylaktoiden Schock. Andere Testergebnisse, die eine besonders gute Allgemeinverträglichkeit anzeigen, werden in biochemischen, biologischen und toxikologischen (Tab. 2) Untersuchungen gewonnen.

Data set [3] has as its system Ratten. Kind of data set: Lethal dose after intravenous injection in rats. It is filed as in vivo. To be noted: i.v., Ratten (90-110 g), 300 mg Jod/ml, 2 ml/min.
From the text: as §1

Structures are written as SMILES.

In data set [1], `CN(CC(O)CO)C(=O)c1c(I)c(NC(=O)CO)c(I)c(C(=O)NCC(O)CO)c1I` (stereo not shown) [Beispiel 1, 5-Hydroxyacetylamino-2,4,6-triiod-isophthalsäure-[(2,3-dihydroxy-N-methyl-propyl)-(2,3-dihydroxypropyl)]-diamid] came in with a Verteilungskoeffizient of 0.069 ± 0.011. Besides, in data set [1] (comparison with structurally comparable compounds, from the partition coefficient), the Hydrophilie result was “am stärksten hydrophil”. Moreover, in data set [2], the mortality worked out at 33%. In addition, the “Zahl der gestorbenen Tiere / Gesamtzahl der Tiere” value is 0/4 in data set [3] (Dosis 1: 12 g J/kg), 2/4 in data set [3] (Dosis 2: 15 g J/kg) and 2/4 in data set [3] (Dosis 3: 18 g J/kg).

As for `C[C@H](O)C(=O)Nc1c(I)c(C(=O)NC(CO)CO)c(I)c(C(=O)NC(CO)CO)c1I` [lopamidol], the Verteilungskoeffizient in data set [1] was 0.089 ± 0.014. Moreover, in data set [2], the mortality was 58%. The entries for the “Zahl der gestorbenen Tiere / Gesamtzahl der Tiere” value in data set [3] (Dosis 1: 12 g J/kg), in data set [3] (Dosis 2: 15 g J/kg) and in data set [3] (Dosis 3: 18 g J/kg) were 2/4, 1/4 and 4/4, respectively.

With `CC(=O)N(CC(O)CO)c1c(I)c(C(=O)NCC(O)CO)c(I)c(C(=O)NCC(O)CO)c1I` (stereo not shown) [lohexol], in data set [1], the Verteilungskoeffizient is given as 0.082 ± 0.005.

The molecule `COCC(=O)Nc1c(I)c(C(=O)NCC(O)CO)c(I)c(C(=O)N(C)CC(O)CO)c1I` (stereo not shown) [lopromid] registered a Verteilungskoeffizient in data set [1] of 0.149 ± 0.011. In addition, the mortality in data set [2] amounted to 67%. Moreover, the “Zahl der gestorbenen Tiere / Gesamtzahl der Tiere” value in data set [3] (Dosis 1: 12 g J/kg) was 1/4; in data set [3] (Dosis 2: 15 g J/kg), 3/4; in data set [3] (Dosis 3: 18 g J/kg), 4/4.

`CN(C(=O)CO)c1c(I)c(C(=O)NCC(O)CO)c(I)c(C(=O)NCC(O)CO)c1I` (stereo not shown) [lomeprol] showed a Verteilungskoeffizient in data set [1] of 0.105 ± 0.006. Further, in data set [2], the mortality turned out to be 89%. In addition, the “Zahl der gestorbenen Tiere / Gesamtzahl der Tiere” value in data set [3] (Dosis 1: 12 g J/kg) is listed as 2/3; in data set [3] (Dosis 2: 15 g J/kg), 3/3; in data set [3] (Dosis 3: 18 g J/kg), 3/3.

The values above are taken from patent EP0815072B1, “RADIOGRAPHIC CONTRASTING AGENT FOR COMPUTERISED TOMOGRAPHY AND UROGRAPHY” (SCHERING AKTIENGESELLSCHAFT, priority 1995, dated 1996).
